In brackets after ≈: the same amount, converted by molar mass. Structures can show the parent of a compound that is named as a salt. Where two headings read alike, the source gives them in different places.
Tests used:
human blood platelets = test: In vitro inhibition of ADP-induced human platelet aggregation in platelet-rich plasma (aggregometer method of Born); conditions: for IC50: Homo sapiens, Platelet, read-out: IC50 vs ADP in human PRP, human PRP, 3 min preincubation at about 37° C., final ADP 5.86 mM (so in the source)
Experimental: The aggregometer method of Born, G. V. R., J. Physiol., (London), 162, 67-68, (1962) as modified by Mustard, J. F., et al., J. Lab. Clin. Med., 64, 548-599, (1964) was used to assess the in vitro activity of the various compounds as to the inhibition of adenosine diphosphate (ADP) and collagen-induced platelet aggregation. The human volunteer donor's arm is cleansed with 70% ethyl alcohol. A sterile 20 ml syringe and needle are used to withdraw 20 ml of blood. The blood is immediately added to a test tube containing 3.8% sodium citrate to prevent clotting (1 part citrate to 9 parts blood).
Platelet rich plasma (PRP) was separated by centrifugation for 10 minutes at 1000 rpm (140xg) from citrated (3.8%) human blood. All glassware used for preparation of PRP is silicon treated. ADP in final concentration of 0.5 μg/mL or 0.05 mL of a collagen suspension prepared according to the method described by Evans, G., et al., J. Exp. Med., 128, 877-894, (1968) was used to induce aggregation. The various compounds tested were dissolved in dimethylsulfoxide (DMSO) so that 5 μl added to the platelet rich plasma would yield the desired test concentration. Vehicle control trials were done and compared with aggregation induced in platelet rich plasma containing various concentrations of the test compounds. Dose response curves were obtained and Inhibitor Concentration (IC50) values calculated.
The test compounds were incubated at about 37° C. in PRP for about 3 minutes prior to the addition of sufficient ADP to provide a final ADP concentration of 5.86 mM.

Aqueous solubility = format: physicochemical; conditions: water
[1] = free base (* footnote), read-out: Aqueous Solubility of Free Base
[2] = not marked as free base, read-out: Aqueous Solubility

| SMILES | IC50 (human blood platelets) [µg/mL] | solubility (Aqueous solubility; [1]) [µg/mL] | IC50 vs ADP in human PRP (human blood platelets; human PRP, 3 min preincubation at about 37° C., final ADP 5.86 mM (so in the source), dihydrochloride) [µg/mL] | solubility (Aqueous solubility; [2]) [µg/mL] |
| --- | --- | --- | --- | --- |
| O=CN1CCN(S(=O)(=O)CCCOc2ccc3nc4[nH]c(=O)[nH]c4cc3c2)CC1 [Compound 7, 3-[[(2,3-Dihydro-2-oxo-1H-imidazo[4,5-b]quinolin-7-yl)oxy]propyl]sulfonyll-1-piperazinecarboxaldehyde] | 5.6 (≈ 13.4 µM) | < 1000 | – | – |
| O=c1[nH]c2cc3cc(OCCCS(=O)(=O)N4CCNCC4)ccc3nc2[nH]1 [Compound 8, 1-[[3-[(2,3-Dihydro-2-oxo-1H-imidazo[4,5-b]quinolin-7-yl)oxy]propyl]sulfonyl]piperazine] | 7.2 (≈ 18.4 µM) | ~1000 (≈ 2550 µM) | – | – |
| O=c1[nH]c2cc3cc(OCCCS(=O)(=O)N4CCN(Cc5ccccc5)CC4)ccc3nc2[nH]1 [Compound 9c] | 0.059 (≈ 0.123 µM) | ~1000 (≈ 2080 µM) | – | – |
| O=c1[nH]c2cc3cc(OCCCS(=O)(=O)N4CCNCC4)ccc3nc2[nH]1 [Compound 10a, 1-[[3-[(2,3-Dihydro-2-oxo-1H-imidazo[4-5-b]quinolin-7-yl)oxy]propyl]sulfonyl]piperazine dihydrochloride] | – | – | 6.4 | > 20000 |
| Cl.Cl.O=c1[nH]c2cc3cc(OCCCS(=O)(=O)N4CCN(Cc5ccccc5)CC4)ccc3nc2[nH]1 [Compound 10c, 1-[[3-[(2,3-Dihydro-2-oxo-1H-imidazo[4,5-b]quinolin-7-yl)oxy]propyl]sulfonyl]-4-(phenylmethyl)piperazine dihydrochloride] | 0.039 | – | – | > 20000 |
| Cl.Cl.O=c1[nH]c2cc3cc(OCCCS(=O)(=O)N4CCN(Cc5ccc(F)cc5)CC4)ccc3nc2[nH]1 [Compound 10d, 1-[[3-[(2,3-Dihydro-2-oxo-1H-imidazo[4,5-b]quinolin-7-yl)oxy]propyl]sulfonyl]-4-(4-fluorophenylmethyl) piperazine dihydrochloride] | 0.16 | – | – | > 20000 |
| Cl.Cl.O=c1[nH]c2cc3cc(OCCCS(=O)(=O)N4CCN(Cc5ccc(Cl)cc5)CC4)ccc3nc2[nH]1 [Compound 10e, 1-[[3-[(2,3-Dihydro-2-oxo-1H-imidazo[4,5-b]quinolin-7-yl)oxy]propyl]sulfonyl]-4-(4-chlorophenylmethyl) piperazine dihydrochloride] | 0.32 | – | – | > 20000 |
| COc1ccc(CN2CCN(S(=O)(=O)CCCOc3ccc4nc5[nH]c(=O)[nH]c5cc4c3)CC2)cc1 [Compound 10f, 1-[[3-[(2,3-Dihydro-2-oxo-1H-imidazo[4,5-b]quinolin-7-yl)oxy]propyl]sulfonyl]-4-[(4-methoxyphenylmethyl)piperazinedihydrochloride] | 0.27 | – | – | > 20000 |
| Cl.Cl.O=c1[nH]c2cc3cc(OCCCS(=O)(=O)N4CCN(CC5CCCCC5)CC4)ccc3nc2[nH]1 [Compound 10g, 1-[[3-[(2,3-Dihydro-2-oxo-1H-imidazo[4,5-b]quinolin-7-yl)oxy]propyl]sulfonyl]-4-(cyclohexylmethyl) piperazine dihydrochloride] | 0.064 | – | – | > 20000 |
| Cl.Cl.O=c1[nH]c2cc3cc(OCCCS(=O)(=O)N4CCN(c5nc6ccccc6o5)CC4)ccc3nc2[nH]1 [Compound 10h, 1-(Benzoxazol-2-yl)-4-[[3-[(2,3-dihydro-2-oxo-1H-imidazo[4,5-b]quinolin-7-yl)oxy]propyl]sulfonyl]piperazine dihydrochloride] | 1.4 | – | – | > 20000 |
| Cl.O=c1[nH]c2cc3cc(OCCCS(=O)(=O)N4CCN(c5nc6ccccc6s5)CC4)ccc3nc2[nH]1 [Compound 10i, 1-(Benzothiazol-2-yl)-4-[[3-[(2,3-dihydro-2-oxo-1H-imidazo[4,5-b]quinolin-7-yl)oxy]propyl]sulfonyl]piperazine hydrochloride] | 2.8 | – | – | ~1000 |
| Cl.Cl.O=c1[nH]c2cc3cc(OCCCS(=O)(=O)N4CCN(CCC5CCCCC5)CC4)ccc3nc2[nH]1 [Compound 10j, 1-[[3-[(2,3-Dihydro-2-oxo-1H-imidazo[4,5-b]quinolin-7-yl)oxy]propyl]sulfonyl]-4-(2-cyclohexylethyl) piperazine dihydrochloride] | 1.2 | – | – | < 5000 |
| O=c1[nH]c2cc3cc(OCCCS(=O)(=O)N4CCN(CCc5ccccc5)CC4)ccc3nc2[nH]1 [Compound 10k, 3-[[(2,3-Dihydro-2-oxo-1H-imidazo[4,5-b]quinolin-7-yl)oxy]propyl]sulfonyl]-4-(2-phenylethyl)piperazine dihydrochloride] | 0.6 | – | – | < 10000 |
| CCC(CC)CN1CCN(S(=O)(=O)CCCOc2ccc3nc4[nH]c(=O)[nH]c4cc3c2)CC1 [Compound 10l, 1-[[3-(2,3-Dihydro-2-oxo-1H-imidazo-[4,5-b]quinolin-7-yl)oxy]propyl]sulfonyl]-4-(2-ethylbut-1-yl)piperazine dihydrochloride] | 0.09 | – | – | > 10000 |
| Cl.Cl.O=c1[nH]c2cc3cc(OCCCS(=O)(=O)N4CCN(Cc5cccc(C(F)(F)F)c5)CC4)ccc3nc2[nH]1 [Compound 10m, 1-[[3-[(2,3-Dihydro-2-oxo-1H-imidazo[4,5-b]quinolin-7-yl)oxy]propyl]sulfonyl]-4-[(3-trifluoromethylphenyl)methyl]piperazine dihydrochloride] | 0.2 | – | – | ~2000 |

Reference: patent publication US5208237A, “7-oxypropylsulfonamido-imidazo[4,5-b]quinolin-2-ones” (Bristol-Meyers Squibb Company, priority 1992, dated 1993)
